Read-outs that look alike come from different tables or passages of the source.
Tests used:
Assay in all cases: biochemical
Design in all cases: Eurofins KinaseProfiler full panel at Km ATP, residual kinase activity (%) relative to DMSO
IKKε(h) = target: T1, IKKε(h) (Homo sapiens, UniProt Q14164)
T1 construct: gene IKBKE
T1 sequence (Q14164 1-716): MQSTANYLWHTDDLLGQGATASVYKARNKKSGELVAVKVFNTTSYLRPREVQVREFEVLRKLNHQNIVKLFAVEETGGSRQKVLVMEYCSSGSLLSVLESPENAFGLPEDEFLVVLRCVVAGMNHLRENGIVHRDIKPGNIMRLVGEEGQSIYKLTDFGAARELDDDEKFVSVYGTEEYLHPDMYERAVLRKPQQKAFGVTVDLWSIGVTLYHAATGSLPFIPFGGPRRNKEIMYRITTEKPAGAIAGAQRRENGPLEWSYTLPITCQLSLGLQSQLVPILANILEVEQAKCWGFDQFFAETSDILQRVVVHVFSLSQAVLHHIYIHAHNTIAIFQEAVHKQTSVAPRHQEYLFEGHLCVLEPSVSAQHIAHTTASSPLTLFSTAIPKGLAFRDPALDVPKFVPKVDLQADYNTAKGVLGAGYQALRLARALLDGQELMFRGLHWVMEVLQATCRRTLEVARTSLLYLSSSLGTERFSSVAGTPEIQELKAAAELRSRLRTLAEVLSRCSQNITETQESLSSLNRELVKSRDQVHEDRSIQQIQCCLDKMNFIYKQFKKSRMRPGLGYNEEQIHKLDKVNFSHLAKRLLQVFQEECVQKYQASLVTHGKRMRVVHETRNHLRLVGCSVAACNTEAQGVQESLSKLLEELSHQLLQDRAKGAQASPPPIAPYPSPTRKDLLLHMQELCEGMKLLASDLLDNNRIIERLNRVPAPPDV
How it was run: (§1)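 Radiometric kinase activity assays were run with ATP at Km and compounds at 10 µM, and remaining activity (%) was reported. A separate competitive binding screen measured DNA-tagged kinase displaced from immobilized active-site ligands by qPCR, giving percent kinase still bound at 10 µM compound in DMSO.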

PKCι(h) = target: T2, PKCι(h) (Homo sapiens, UniProt P41743)
T2 construct: gene PRKCI
T2 sequence (P41743 1-596): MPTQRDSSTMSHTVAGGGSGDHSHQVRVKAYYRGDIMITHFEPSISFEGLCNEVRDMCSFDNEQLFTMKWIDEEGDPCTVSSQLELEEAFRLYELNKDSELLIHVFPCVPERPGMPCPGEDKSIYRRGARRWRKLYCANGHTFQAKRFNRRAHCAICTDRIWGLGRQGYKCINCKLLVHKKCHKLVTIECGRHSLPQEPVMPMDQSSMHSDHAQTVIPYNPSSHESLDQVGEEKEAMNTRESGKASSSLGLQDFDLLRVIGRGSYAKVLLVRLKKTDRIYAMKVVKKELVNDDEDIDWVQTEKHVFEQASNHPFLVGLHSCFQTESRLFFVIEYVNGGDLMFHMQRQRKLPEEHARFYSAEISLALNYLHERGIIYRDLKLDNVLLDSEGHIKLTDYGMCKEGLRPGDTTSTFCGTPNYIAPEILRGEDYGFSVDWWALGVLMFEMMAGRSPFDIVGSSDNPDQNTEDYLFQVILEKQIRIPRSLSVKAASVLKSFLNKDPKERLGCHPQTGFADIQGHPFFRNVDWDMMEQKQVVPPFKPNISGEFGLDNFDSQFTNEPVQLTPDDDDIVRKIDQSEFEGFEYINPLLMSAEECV
How it was run: as §1

MLK2(h) = target: T3, MLK2(h) (Homo sapiens, UniProt Q02779)
T3 construct: gene MAP3K10
T3 sequence (Q02779 whole entry): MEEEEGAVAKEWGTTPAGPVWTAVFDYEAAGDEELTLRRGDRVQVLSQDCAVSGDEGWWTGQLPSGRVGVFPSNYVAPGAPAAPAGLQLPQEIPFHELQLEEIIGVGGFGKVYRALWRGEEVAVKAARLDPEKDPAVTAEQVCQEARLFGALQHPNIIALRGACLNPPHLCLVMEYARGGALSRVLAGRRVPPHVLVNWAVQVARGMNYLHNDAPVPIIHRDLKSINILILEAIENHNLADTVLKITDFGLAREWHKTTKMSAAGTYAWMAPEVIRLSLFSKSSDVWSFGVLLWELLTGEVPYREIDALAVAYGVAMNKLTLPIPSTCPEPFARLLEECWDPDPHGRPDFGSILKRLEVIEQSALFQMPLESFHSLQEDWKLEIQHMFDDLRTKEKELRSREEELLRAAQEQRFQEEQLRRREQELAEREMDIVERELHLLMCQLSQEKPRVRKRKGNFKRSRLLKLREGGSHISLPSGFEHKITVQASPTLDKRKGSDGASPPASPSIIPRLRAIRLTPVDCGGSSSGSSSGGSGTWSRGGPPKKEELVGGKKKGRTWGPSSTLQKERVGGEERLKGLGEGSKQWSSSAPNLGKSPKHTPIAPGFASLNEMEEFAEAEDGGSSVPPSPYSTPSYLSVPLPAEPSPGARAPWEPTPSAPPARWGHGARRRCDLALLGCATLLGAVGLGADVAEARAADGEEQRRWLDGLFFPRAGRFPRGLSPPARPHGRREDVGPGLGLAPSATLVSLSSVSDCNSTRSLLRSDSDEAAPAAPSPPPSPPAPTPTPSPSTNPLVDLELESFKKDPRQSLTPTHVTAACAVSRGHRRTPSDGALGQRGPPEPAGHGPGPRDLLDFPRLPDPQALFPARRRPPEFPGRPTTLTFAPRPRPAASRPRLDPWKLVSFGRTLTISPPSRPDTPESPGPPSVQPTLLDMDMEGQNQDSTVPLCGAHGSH
How it was run: as §1

NEK4 = NEK4 (Homo sapiens, UniProt P51957)
NEK4, sequence (P51957 whole entry): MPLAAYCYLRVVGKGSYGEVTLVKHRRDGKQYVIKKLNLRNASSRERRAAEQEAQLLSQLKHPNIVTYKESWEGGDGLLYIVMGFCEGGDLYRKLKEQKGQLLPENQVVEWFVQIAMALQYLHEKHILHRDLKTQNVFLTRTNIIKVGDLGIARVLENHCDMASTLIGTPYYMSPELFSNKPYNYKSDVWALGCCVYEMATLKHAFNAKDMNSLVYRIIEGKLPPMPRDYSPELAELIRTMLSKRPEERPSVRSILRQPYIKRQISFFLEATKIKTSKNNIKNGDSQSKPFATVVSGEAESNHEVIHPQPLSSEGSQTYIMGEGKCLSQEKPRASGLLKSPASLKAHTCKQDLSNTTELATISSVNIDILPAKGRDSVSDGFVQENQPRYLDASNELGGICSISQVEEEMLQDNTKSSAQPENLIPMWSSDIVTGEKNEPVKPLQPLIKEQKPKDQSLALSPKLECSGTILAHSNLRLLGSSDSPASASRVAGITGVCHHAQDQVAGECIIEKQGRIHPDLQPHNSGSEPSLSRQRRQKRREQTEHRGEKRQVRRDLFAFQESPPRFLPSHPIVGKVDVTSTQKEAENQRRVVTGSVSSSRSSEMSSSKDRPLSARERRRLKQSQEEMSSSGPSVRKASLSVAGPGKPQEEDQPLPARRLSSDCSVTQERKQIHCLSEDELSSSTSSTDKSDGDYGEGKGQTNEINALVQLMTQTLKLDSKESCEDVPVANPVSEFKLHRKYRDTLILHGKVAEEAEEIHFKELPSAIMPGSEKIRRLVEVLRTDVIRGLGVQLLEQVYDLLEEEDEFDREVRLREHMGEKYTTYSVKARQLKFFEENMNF
How it was run: as §1

CDK5/p35(h) = target: T4, CDK5/p35(h) (Homo sapiens, UniProt Q00535)
T4 construct: p35
T4 sequence (Q00535 whole entry): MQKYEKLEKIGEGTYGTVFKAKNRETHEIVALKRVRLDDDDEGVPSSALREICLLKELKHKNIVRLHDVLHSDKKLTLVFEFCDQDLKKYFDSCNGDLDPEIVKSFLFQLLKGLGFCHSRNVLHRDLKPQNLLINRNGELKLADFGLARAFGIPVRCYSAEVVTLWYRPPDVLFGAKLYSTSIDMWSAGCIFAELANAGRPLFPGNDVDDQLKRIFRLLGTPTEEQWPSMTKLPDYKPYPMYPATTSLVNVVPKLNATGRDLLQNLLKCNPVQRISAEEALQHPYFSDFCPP
T4 sequence (Q15078 whole entry partner): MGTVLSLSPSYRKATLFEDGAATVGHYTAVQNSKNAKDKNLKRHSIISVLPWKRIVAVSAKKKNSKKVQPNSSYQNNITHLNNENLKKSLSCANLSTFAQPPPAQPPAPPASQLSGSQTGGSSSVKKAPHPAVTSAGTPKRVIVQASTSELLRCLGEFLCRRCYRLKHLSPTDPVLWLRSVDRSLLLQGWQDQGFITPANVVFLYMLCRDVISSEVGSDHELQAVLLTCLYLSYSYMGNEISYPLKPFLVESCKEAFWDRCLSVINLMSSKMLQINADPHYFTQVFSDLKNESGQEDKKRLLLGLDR
How it was run: as §1

[1] = target: T5, PI3 Kinase (p110b/p85a)(m) (Mus musculus, UniProt Q8BTI9)
T5 construct: gene Pik3cb
T5 sequence (Q8BTI9 whole entry): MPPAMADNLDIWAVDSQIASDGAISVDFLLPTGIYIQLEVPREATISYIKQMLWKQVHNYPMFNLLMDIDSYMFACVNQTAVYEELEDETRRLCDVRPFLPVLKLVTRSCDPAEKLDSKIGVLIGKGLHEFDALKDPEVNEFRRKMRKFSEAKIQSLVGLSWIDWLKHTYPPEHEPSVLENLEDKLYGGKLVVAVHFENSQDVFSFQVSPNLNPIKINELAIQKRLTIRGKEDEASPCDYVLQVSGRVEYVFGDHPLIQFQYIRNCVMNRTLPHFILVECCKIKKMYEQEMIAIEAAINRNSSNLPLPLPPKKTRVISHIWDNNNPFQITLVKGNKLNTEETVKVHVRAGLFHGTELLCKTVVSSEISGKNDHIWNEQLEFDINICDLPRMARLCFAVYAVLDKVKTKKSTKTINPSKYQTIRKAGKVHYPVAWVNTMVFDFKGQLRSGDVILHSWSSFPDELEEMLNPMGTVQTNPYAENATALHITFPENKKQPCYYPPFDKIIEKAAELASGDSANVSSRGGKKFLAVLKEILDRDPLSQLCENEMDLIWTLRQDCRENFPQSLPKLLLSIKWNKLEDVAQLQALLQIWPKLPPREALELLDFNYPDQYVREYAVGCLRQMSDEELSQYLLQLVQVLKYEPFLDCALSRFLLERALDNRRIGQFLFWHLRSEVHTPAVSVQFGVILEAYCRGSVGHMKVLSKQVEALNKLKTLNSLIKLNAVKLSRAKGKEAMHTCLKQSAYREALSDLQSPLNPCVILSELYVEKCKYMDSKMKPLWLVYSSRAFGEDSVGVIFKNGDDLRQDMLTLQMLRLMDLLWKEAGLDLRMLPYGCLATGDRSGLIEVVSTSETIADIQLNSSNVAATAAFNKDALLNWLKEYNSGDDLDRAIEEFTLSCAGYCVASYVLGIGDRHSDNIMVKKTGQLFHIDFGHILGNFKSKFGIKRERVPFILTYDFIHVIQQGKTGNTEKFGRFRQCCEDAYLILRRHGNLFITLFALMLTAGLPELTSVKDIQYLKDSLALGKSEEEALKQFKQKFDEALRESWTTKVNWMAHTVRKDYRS
T5 sequence (P26450 whole entry partner): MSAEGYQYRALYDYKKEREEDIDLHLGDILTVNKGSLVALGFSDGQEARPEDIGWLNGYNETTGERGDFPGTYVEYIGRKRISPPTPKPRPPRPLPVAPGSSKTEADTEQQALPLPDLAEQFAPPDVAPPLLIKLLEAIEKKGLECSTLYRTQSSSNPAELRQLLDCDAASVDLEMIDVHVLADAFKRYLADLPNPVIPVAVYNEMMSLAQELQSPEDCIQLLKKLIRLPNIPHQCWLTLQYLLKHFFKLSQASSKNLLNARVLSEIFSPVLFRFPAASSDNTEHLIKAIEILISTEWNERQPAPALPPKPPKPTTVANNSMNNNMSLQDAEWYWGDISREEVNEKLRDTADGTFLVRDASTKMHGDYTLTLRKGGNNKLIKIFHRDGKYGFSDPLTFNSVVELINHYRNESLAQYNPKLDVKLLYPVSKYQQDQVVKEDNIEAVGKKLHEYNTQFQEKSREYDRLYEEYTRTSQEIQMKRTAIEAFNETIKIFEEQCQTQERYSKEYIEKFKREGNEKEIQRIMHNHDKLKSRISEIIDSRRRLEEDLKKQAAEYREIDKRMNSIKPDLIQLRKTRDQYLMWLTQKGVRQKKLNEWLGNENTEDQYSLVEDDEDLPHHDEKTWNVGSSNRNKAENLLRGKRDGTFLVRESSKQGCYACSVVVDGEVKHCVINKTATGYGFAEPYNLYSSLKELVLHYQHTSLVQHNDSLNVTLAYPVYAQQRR
How it was run: as §1

PI3KC2a(h) = target: T6, PI3KC2a(h) (Homo sapiens, UniProt O00443)
T6 construct: gene PIK3C2A
How it was run: as §1

TAF1L(h) = TAF1L(h) (Homo sapiens, UniProt Q8IZX4)
How it was run: as §1

[2] = read-out: Residual activity (%) Spautin-1 5aa
[3] = read-out: Residual activity (%) 5as
[4] = read-out: Residual activity (%) 5at
[5] = read-out: Residual activity (%) 5ay

Fc1ccc(CNc2ncnc3ccc(F)cc23)cc1 [5aa, 6-Fluoro-N-(4-fluorobenzyl)-4-Quinazolinamine]
remaining activity at 10 µM (IKKε(h); [2]): 64% | remaining activity at 10 µM (PKCι(h); [2]): 84% | remaining activity at 10 µM (MLK2(h); [2]): 95% | remaining activity at 10 µM (NEK4; [2]): 71% | remaining activity at 10 µM (CDK5/p35(h); [2]): 87% | remaining activity at 10 µM [1, 2]: 102% | remaining activity at 10 µM (PI3KC2a(h); [2]): 102% | remaining activity at 10 µM (TAF1L(h); [2]): 80%

Fc1ccc(CCNc2ncnc3ccc(F)cc23)cc1 [5as, 6-Fluoro-N-[2-(4-Fluorophenyl)Ethyl]-4-Quinazolinamine]
remaining activity at 10 µM (IKKε(h); [3]): 72% | remaining activity at 10 µM (PKCι(h); [3]): 114% | remaining activity at 10 µM (MLK2(h); [3]): 97% | remaining activity at 10 µM (CDK5/p35(h); [3]): 87% | remaining activity at 10 µM [1, 3]: 98% | remaining activity at 10 µM (PI3KC2a(h); [3]): 100% | remaining activity at 10 µM (TAF1L(h); [3]): 66%

Fc1ccc2ncnc(NCCc3ccc(Cl)cc3)c2c1 [5at, N-[2-(4-Chlorophenyl)Ethyl]-6-Fluoro-4-Quinazolinamine]
remaining activity at 10 µM (IKKε(h); [4]): 79% | remaining activity at 10 µM (PKCι(h); [4]): 98% | remaining activity at 10 µM (MLK2(h); [4]): 93% | remaining activity at 10 µM (NEK4; [4]): 12% | remaining activity at 10 µM (CDK5/p35(h); [4]): 87% | remaining activity at 10 µM [1, 4]: 101% | remaining activity at 10 µM (PI3KC2a(h); [4]): 105% | remaining activity at 10 µM (TAF1L(h); [4]): 70%

COc1ccc2ncnc(Nc3cccc(F)c3)c2c1 [5ay, N-(3-Fluorophenyl)-6-Methoxy-4-Quinazolinamine]
remaining activity at 10 µM (IKKε(h); [5]): 67% | remaining activity at 10 µM (PKCι(h); [5]): 89% | remaining activity at 10 µM (MLK2(h); [5]): 96% | remaining activity at 10 µM (NEK4; [5]): 30% | remaining activity at 10 µM (CDK5/p35(h); [5]): 89% | remaining activity at 10 µM [1, 5]: 99% | remaining activity at 10 µM (PI3KC2a(h); [5]): 106% | remaining activity at 10 µM (TAF1L(h); [5]): 32%
